From patent US20230123334A1, “AMINO LIPID COMPOUND, PREPARATION METHOD THEREFOR, AND APPLICATION THEREOF” (SHENZHEN SHENXIN BIOTECHNOLOGY CO., LTD., priority 2020, published 2023)

Test system: HEK293 cells
Experiment: Preliminary screening as mRNA vectors, EGFP mRNA transfection of HEK293 cells
Format: cell-based
Conditions: EGFP mRNA 50 ng per well, 96-well plates; percentage of GFP fluorescent cells relative to total number of cells (Hoechst)
In short: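 Each well of HEK293 cells received 50 ng of EGFP mRNA. Efficiency was expressed as percent GFP-expressing cells over Hoechst-defined total cell number.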

Row | SMILES | Absolute mRNA transfection efficiency in HEK293 cells [%]
1 | CCCCCCCCCCCCCCCCCCSc1nc(NCCCCCCCC)nc(NCCN2CCN(C)CC2)n1 [Compound D5S18N8] | 33.4
2 | CCCCCCCCCCCCCCCCCCSc1nc(NCCCCCCCCC)nc(NCCN2CCN(C)CC2)n1 [Compound D5S18N9] | 11.6
3 | CCCCCCCCCCCCCCCCCCSc1nc(NCCCCCCCCCCC)nc(NCCN2CCN(C)CC2)n1 [Compound D5S18N11] | 1.1
4 | CCCCCCCCCCCCCCCCCCSc1nc(NCCCCCCCCCCCC)nc(NCCN2CCN(C)CC2)n1 [Compound D5S18N12] | 1.7
5 | CCCCCCCCCCCCCCCCCCSc1nc(NCCCCCCCCCCCCC)nc(NCCN2CCN(C)CC2)n1 [Compound D5S18N13] | 1.4
6 | CCCCCCCCCCCCCCCCCCSc1nc(NCCCCCCCCCCCCCCC)nc(NCCN2CCN(C)CC2)n1 [Compound D5S18N15] | 0.1
7 | CCCCCCCCCCCCCCCCCCSc1nc(NCCCCCCCCCCCCCCCC)nc(NCCN2CCN(C)CC2)n1 [Compound D5S18N16] | 0.1
8 | CCCCCCCCCCCCCCCCCCNc1nc(NCCN2CCN(C)CC2)nc(SCCCCCCCCCCCCCCCCCC)n1 [Compound D5S18N18] | 0.0
9 | CCCCCCNc1nc(NCCCN(C)C)nc(SCCCCCC)n1 [Compound D6S6N6] | 0.0
10 | CCCCCCCNc1nc(NCCCN(C)C)nc(SCCCCCC)n1 [Compound D6S6N7] | 0.2
11 | CCCCCCCCNc1nc(NCCCN(C)C)nc(SCCCCCC)n1 [Compound D6S6N8] | 0.4
12 | CCCCCCCCCNc1nc(NCCCN(C)C)nc(SCCCCCC)n1 [Compound D6S6N9] | 0.3
13 | CCCCCCCCCCCNc1nc(NCCCN(C)C)nc(SCCCCCC)n1 [Compound D6S6N11] | 2.5
14 | CCCCCCCCCCCCNc1nc(NCCCN(C)C)nc(SCCCCCC)n1 [Compound D6S6N12] | 3.5
15 | CCCCCCCCCCCCCNc1nc(NCCCN(C)C)nc(SCCCCCC)n1 [Compound D6S6N13] | 3.0
16 | CCCCCCCCCCCCCCCNc1nc(NCCCN(C)C)nc(SCCCCCC)n1 [Compound D6S6N15] | 12.1
17 | CCCCCCCCCCCCCCCCNc1nc(NCCCN(C)C)nc(SCCCCCC)n1 [Compound D6S6N16] | 40.4
18 | CCCCCCCCCCCCCCCCCCNc1nc(NCCCN(C)C)nc(SCCCCCC)n1 [Compound D6S6N18] | 60.1
19 | CCCCCCSc1nc(NCCCN(C)C)nc(SCCCCCC)n1 [Compound D6S6S6] | 12.6
20 | CCCCCCCSc1nc(NCCCN(C)C)nc(SCCCCCC)n1 [Compound D6S6S7] | 11.3
21 | CCCCCCCCSc1nc(NCCCN(C)C)nc(SCCCCCC)n1 [Compound D6S6S8] | 21.1
22 | CCCCCCCCCSc1nc(NCCCN(C)C)nc(SCCCCCC)n1 [Compound D6S6S9] | 10.6

Row | SMILES | Absolute mRNA transfection efficiency in HEK293 cells [%]
23 | CCCCCCCCCCSc1nc(NCCCN(C)C)nc(SCCCCCC)n1 [Compound D6S6S10] | 31.4
24 | CCCCCCCCCCCSc1nc(NCCCN(C)C)nc(SCCCCCC)n1 [Compound D6S6S11] | 15.7
25 | CCCCCCCCCCCCSc1nc(NCCCN(C)C)nc(SCCCCCC)n1 [Compound D6S6S12] | 24.7
26 | CCCCCCCCCCCCCCSc1nc(NCCCN(C)C)nc(SCCCCCC)n1 [Compound D6S6S14] | 62.8
27 | CCCCCCCCCCCCCCCSc1nc(NCCCN(C)C)nc(SCCCCCC)n1 [Compound D6S6S15] | 47.0
28 | CCCCCCCCCCCCCCCCSc1nc(NCCCN(C)C)nc(SCCCCCC)n1 [Compound D6S6S16] | 34.4
29 | CCCCCCCCCCCCCCCCCCSc1nc(NCCCN(C)C)nc(SCCCCCC)n1 [Compound D6S6S18] | 83.3
30 | CCCCCCCSc1nc(NCCCCCC)nc(NCCCN(C)C)n1 [Compound D6S7N6] | 8.8
31 | CCCCCCCNc1nc(NCCCN(C)C)nc(SCCCCCCC)n1 [Compound D6S7N7] | 1.8
32 | CCCCCCCCNc1nc(NCCCN(C)C)nc(SCCCCCCC)n1 [Compound D6S7N8] | 2.8
33 | CCCCCCCCCNc1nc(NCCCN(C)C)nc(SCCCCCCC)n1 [Compound D6S7N9] | 5.9
34 | CCCCCCCCCCCNc1nc(NCCCN(C)C)nc(SCCCCCCC)n1 [Compound D6S7N11] | 18.9
35 | CCCCCCCCCCCCNc1nc(NCCCN(C)C)nc(SCCCCCCC)n1 [Compound D6S7N12] | 12.5
36 | CCCCCCCCCCCCCNc1nc(NCCCN(C)C)nc(SCCCCCCC)n1 [Compound D6S7N13] | 44.9
37 | CCCCCCCCCCCCCCCNc1nc(NCCCN(C)C)nc(SCCCCCCC)n1 [Compound D6S7N15] | 37.9
38 | CCCCCCCCCCCCCCCCNc1nc(NCCCN(C)C)nc(SCCCCCCC)n1 [Compound D6S7N16] | 44.8
39 | CCCCCCCCCCCCCCCCCCNc1nc(NCCCN(C)C)nc(SCCCCCCC)n1 [Compound D6S7N18] | 49.2
40 | CCCCCCCSc1nc(NCCCN(C)C)nc(SCCCCCCC)n1 [Compound D6S7S7] | 29.3
41 | CCCCCCCCSc1nc(NCCCN(C)C)nc(SCCCCCCC)n1 [Compound D6S7S8] | 6.3
42 | CCCCCCCCCSc1nc(NCCCN(C)C)nc(SCCCCCCC)n1 [Compound D6S7S9] | 14.3
43 | CCCCCCCCCCSc1nc(NCCCN(C)C)nc(SCCCCCCC)n1 [Compound D6S7S10] | 18.1
44 | CCCCCCCCCCCSc1nc(NCCCN(C)C)nc(SCCCCCCC)n1 [Compound D6S7S11] | 68.6

Row | SMILES | Absolute mRNA transfection efficiency in HEK293 cells [%]
45 | CCCCCCCCCCCCSc1nc(NCCCN(C)C)nc(SCCCCCCC)n1 [Compound D6S7S12] | 93.8
46 | CCCCCCCCCCCCCCSc1nc(NCCCN(C)C)nc(SCCCCCCC)n1 [Compound D6S7S14] | 59.7
47 | CCCCCCCCCCCCCCCSc1nc(NCCCN(C)C)nc(SCCCCCCC)n1 [Compound D6S7S15] | 90.0
48 | CCCCCCCCCCCCCCCCSc1nc(NCCCN(C)C)nc(SCCCCCCC)n1 [Compound D6S7S16] | 90.8
49 | CCCCCCCCCCCCCCCCCCSc1nc(NCCCN(C)C)nc(SCCCCCCC)n1 [Compound D6S7S18] | 22.0
50 | CCCCCCCCSc1nc(NCCCCCC)nc(NCCCN(C)C)n1 [Compound D6S8N6] | 9.4
51 | CCCCCCCCSc1nc(NCCCCCCC)nc(NCCCN(C)C)n1 [Compound D6S8N7] | 4.3
52 | CCCCCCCCNc1nc(NCCCN(C)C)nc(SCCCCCCCC)n1 [Compound D6S8N8] | 3.5
53 | CCCCCCCCCNc1nc(NCCCN(C)C)nc(SCCCCCCCC)n1 [Compound D6S8N9] | 6.7
54 | CCCCCCCCCCCNc1nc(NCCCN(C)C)nc(SCCCCCCCC)n1 [Compound D6S8N11] | 32.3
55 | CCCCCCCCCCCCNc1nc(NCCCN(C)C)nc(SCCCCCCCC)n1 [Compound D6S8N12] | 46.0
56 | CCCCCCCCCCCCCNc1nc(NCCCN(C)C)nc(SCCCCCCCC)n1 [Compound D6S8N13] | 58.0
57 | CCCCCCCCCCCCCCCNc1nc(NCCCN(C)C)nc(SCCCCCCCC)n1 [Compound D6S8N15] | 55.3
58 | CCCCCCCCCCCCCCCCNc1nc(NCCCN(C)C)nc(SCCCCCCCC)n1 [Compound D6S8N16] | 67.0
59 | CCCCCCCCCCCCCCCCCCNc1nc(NCCCN(C)C)nc(SCCCCCCCC)n1 [Compound D6S8N18] | 40.4
60 | CCCCCCCCSc1nc(NCCCN(C)C)nc(SCCCCCCCC)n1 [Compound D6S8S8] | 45.6
61 | CCCCCCCCCSc1nc(NCCCN(C)C)nc(SCCCCCCCC)n1 [Compound D6S8S9] | 59.9
62 | CCCCCCCCCCSc1nc(NCCCN(C)C)nc(SCCCCCCCC)n1 [Compound D6S8S10] | 70.2
63 | CCCCCCCCCCCSc1nc(NCCCN(C)C)nc(SCCCCCCCC)n1 [Compound D6S8S11] | 92.3
64 | CCCCCCCCCCCCSc1nc(NCCCN(C)C)nc(SCCCCCCCC)n1 [Compound D6S8S12] | 61.9
